Converted amounts (≈) assume the structure as drawn. “And” between values parts separate entries of the source, which are not always exact repeats. Identical values can stand only once.
Tests used:
[1] = tested on: M. abscessus MC 5931; assay: MIC, Protocol #4 Mycobacterium species; format: cell-based
[2] = tested on: Moraxella catarrhalis ATCC 49143; assay: MIC, Protocol 2 microdilution broth, Gram negatives; set-up: unit not given beside the values
[3] = tested on: Staphylococcus aureus ATCC 29213 GyrB T173I; assay: MIC, Protocol #1 microdilution broth; format: cell-based
[4] = tested on: M. abscessus MC 6136; assay: MIC, Protocol #4 Mycobacterium species; format: cell-based
[5] = tested on: M. abscessus BB2; assay: MIC, Protocol #4 Mycobacterium species; format: cell-based
[6] = tested on: M. abscessus LT 949; assay: MIC, Protocol #4 Mycobacterium species; format: cell-based
[7] = tested on: Staphylococcus aureus; assay: MIC90 panel, Protocol #1 microdilution broth; format: cell-based; settings: 67 isolates
[8] = tested on: M. abscessus MC 6025; assay: MIC, Protocol #4 Mycobacterium species; format: cell-based
[9] = tested on: Nocardia caviae 2497; assay: MIC, Protocol #4 Mycobacterium species; format: cell-based
Description: Protocol #4. MIC Determination Procedure for Mycobacterium Species
Inoculum Preparation for M. kansasii, M. avium, M. abscessus and Nocardia spc.: • 1. Used prepared frozen stock of culture or a fresh culture grown in 7H10 broth at a concentration of 10 Klett or 5×10^7/ml. • 2. Prepared a 1:20 dilution by removing 1.0 ml of the culture stock and added it to 19 ml of 7H10 broth (final concentration 2.5×10^6 cfu/ml). • 3. From this dilution prepared a 1:20 dilution, removed 1 ml and added it to 19 ml of fresh broth (final suspension).
Plate Preparation: • 1. Labeled plates. • 2. Added 50 μl of 7H10 broth +10% OADC to all wells being utilized for MIC determination using a multichannel electronic pipettor. • 3. Prepared stock solutions of drugs (e.g. 1 mg/ml concentration) to be tested. • 4. Thawed and diluted frozen stock solutions using 7H10 broth +10% OADC to obtain a working solution 4× the maximum concentration tested (e.g. final concentration 32 μg/ml, highest concentration tested was 8 μg/ml). Dilutions were made from the stock solution. To start at a concentration of 1 μg/ml, the drugs were prepared at 4 μg/ml, so the starting concentration was 1 μg/ml. Removed 25 μl of the 1 mg/ml stock and added to 6.2 ml of broth. All dilutions of drugs were done in broth. • 5. Added 50 μl of the 4× working solution to the first well of the designated row. […] Read visually and recorded the results.

[10] = tested on: Bacteroides and Parabacter spp.; assay: MIC90 panel, Protocol #3 agar dilution; format: cell-based; settings: 26 isolates
[11] = tested on: Pseudomonas aeruginosa PAO750; assay: MIC, Protocol 2 microdilution broth, Gram negatives; format: cell-based
Source text: (§1) The specific protocols used were as follows:
(§2) Drug dilutions, inoculation, MIC determination: • 1.

[12] = tested on: Escherichia coli CHE30; assay: as above; format: cell-based
Source text: as §1, §2

[13] = tested on: Bacillus subtilis (168) ATCC 6051; assay: MIC, Protocol #1 microdilution broth; format: cell-based
[14] = tested on: M. abscessus BB10; assay: MIC, Protocol #4 Mycobacterium species; format: cell-based
[15] = tested on: Streptococcus pneumoniae ATCC 10015; assay: MIC, Protocol #1 microdilution broth; format: cell-based; settings: Streptococcus pneumoniae ATCC 10015, with Laked Horse Blood
[16] = tested on: Staphylococcus aureus ATCC 29213; assay: MIC, Protocol #1 microdilution broth; format: cell-based
[17] = tested on: M. abscessus MC 5605; assay: MIC, Protocol #4 Mycobacterium species; format: cell-based
[18] = Stability data of solid forms on storage; format: physicochemical
[19] = tested on: Enterococcus faecium ATCC 49624; assay: MIC, Protocol #1 microdilution broth; format: cell-based
[20] = tested on: M. abscessus MC 5901; assay: MIC, Protocol #4 Mycobacterium species; format: cell-based
[21] = tested on: M. avium 3404.4; assay: MIC, Protocol #4 Mycobacterium species; format: cell-based
[22] = tested on: Mycobacterium avium 103; assay: MIC, Protocol #4 Mycobacterium species; format: cell-based
[23] = tested on: Neisseria meningitidis; assay: MIC90 panel, Protocol #3 agar dilution; format: cell-based; settings: 12 isolates
[24] = tested on: M. abscessus MC 5908; assay: MIC, Protocol #4 Mycobacterium species; format: cell-based; settings: in µg/mL
[25] = tested on: Streptococcus pneumoniae; assay: MIC90 panel, Protocol #1 microdilution broth; format: cell-based; settings: 67 isolates

CCNC(=O)Nc1nc2cc(-c3cnc(C(C)(C)O)nc3)c(F)c([C@H]3CCCO3)c2[nH]1 [Compound 24, 1-ethyl-3-[6-fluoro-5-[2-(1-hydroxy-1-methyl-ethyl)pyrimidin-5-yl]-7-[(2R)-tetrahydrofuran-2-yl]-1H-benzimidazol-2-yl]urea]
MIC [1]: 0.5 µg/mL (≈ 1.17 µM) | MIC [2]: ≦0.016 | MIC [3]: 0.3 µg/mL (≈ 0.7 µM) | MIC [4]: 0.5 µg/mL (≈ 1.17 µM) | MIC [5]: 1 µg/mL (≈ 2.33 µM) | MIC [6]: 1 µg/mL (≈ 2.33 µM) | MIC90 [7]: 0.03 µg/mL (≈ 0.07 µM) | MIC Range [7]: 0.008 to 0.06 µg/mL | MIC [8]: 0.75 µg/mL (≈ 1.75 µM) | MIC [9]: 0.125 µg/mL (≈ 0.292 µM) | MIC90 [10]: 16 µg/mL (≈ 37.3 µM) | MIC Range [10]: 0.12 to 16 µg/mL | MIC [11]: 0.25 µg/mL (≈ 0.583 µM) | MIC [12]: 8 µg/mL (≈ 18.7 µM) | MIC [13]: 4 µg/mL (≈ 9.34 µM) | MIC [14]: 0.015 µg/mL (≈ 0.035 µM) | MIC [15]: 0.01 µg/mL (≈ 0.0233 µM) | MIC ([16]; Staphylococcus aureus ATCC 29213): 0.021 µg/mL (≈ 0.049 µM) | MIC ([16]; Staphylococcus aureus ATCC 29213 with Human Serum): 0.15 µg/mL (≈ 0.35 µM) | MIC ([16]; Staphylococcus aureus ATCC 29213 with Mouse Serum): 0.5 µg/mL (≈ 1.17 µM) | MIC ([16]; Staphylococcus aureus ATCC 29213 with Rat Serum): 0.18 µg/mL (≈ 0.42 µM) | MIC [17]: 1.5 µg/mL (≈ 3.5 µM) | chemical and physical stability ([18]; 25° C./60% RH, one week time point): chemically and physically unstable | chemical stability ([18]; 40° C./ambient, t=2 weeks): chemically unstable | MIC ([19]; Enterococcus faecium ATCC 49624): 0.11 µg/mL (≈ 0.257 µM) | MIC ([19]; Enterococcus faecium ATCC 49624 with Laked Horse Blood): 0.11 µg/mL (≈ 0.257 µM) | MIC [20]: 1 µg/mL (≈ 2.33 µM) | MIC [21]: 0.23 µg/mL (≈ 0.537 µM) | MIC [22]: 0.18 µg/mL (≈ 0.42 µM) | MIC90 [23]: 0.03 µg/mL (≈ 0.07 µM) | MIC Range [23]: 0.008 to 0.06 µg/mL | MIC [24]: 1 and 1.5 | MIC90 [25]: 0.015 µg/mL (≈ 0.035 µM) | MIC Range [25]: 0.008 to 0.03 µg/mL

— US9040542B2, “Solid forms of gyrase inhibitor (R)-1-ethyl-3-[6-fluoro-5-[2-(1-hydroxy-1-methyl-ethyl)pryimidin-5-yl]-7-(tetrahydrofuran-2-yl)-1H-benzimidazol-2-yl]urea” (priority 2011, dated 2015)
